Reference: patent US8440442B2, “Method of assaying 5-FU” (Myriad Genetics, Inc, priority 2009, dated 2013)

How the values were obtained:
[1] = biological target: T1, dihydropyrimidine dehydrogenase (DPD) (Homo sapiens, UniProt Q12882); test: Low concentrations of gimeracil in 5-FU spiked blood, plasma 5-FU initial and after 24 hr; type: biochemical; settings: for 5-FU concentration, Initial / 5-FU concentration, 24 hr: blood spiked 500 ng/mL 5-FU; for 5-FU concentration, Initial: after plasma collection; for 5-FU concentration, 24 hr: plasma 24 hours at room temperature
T1 construct: from tissue; host or cells: donor whole blood (K2EDTA), plasma separated from it, and WBC/buffy coat
T1 sequence (Q12882 4-1025): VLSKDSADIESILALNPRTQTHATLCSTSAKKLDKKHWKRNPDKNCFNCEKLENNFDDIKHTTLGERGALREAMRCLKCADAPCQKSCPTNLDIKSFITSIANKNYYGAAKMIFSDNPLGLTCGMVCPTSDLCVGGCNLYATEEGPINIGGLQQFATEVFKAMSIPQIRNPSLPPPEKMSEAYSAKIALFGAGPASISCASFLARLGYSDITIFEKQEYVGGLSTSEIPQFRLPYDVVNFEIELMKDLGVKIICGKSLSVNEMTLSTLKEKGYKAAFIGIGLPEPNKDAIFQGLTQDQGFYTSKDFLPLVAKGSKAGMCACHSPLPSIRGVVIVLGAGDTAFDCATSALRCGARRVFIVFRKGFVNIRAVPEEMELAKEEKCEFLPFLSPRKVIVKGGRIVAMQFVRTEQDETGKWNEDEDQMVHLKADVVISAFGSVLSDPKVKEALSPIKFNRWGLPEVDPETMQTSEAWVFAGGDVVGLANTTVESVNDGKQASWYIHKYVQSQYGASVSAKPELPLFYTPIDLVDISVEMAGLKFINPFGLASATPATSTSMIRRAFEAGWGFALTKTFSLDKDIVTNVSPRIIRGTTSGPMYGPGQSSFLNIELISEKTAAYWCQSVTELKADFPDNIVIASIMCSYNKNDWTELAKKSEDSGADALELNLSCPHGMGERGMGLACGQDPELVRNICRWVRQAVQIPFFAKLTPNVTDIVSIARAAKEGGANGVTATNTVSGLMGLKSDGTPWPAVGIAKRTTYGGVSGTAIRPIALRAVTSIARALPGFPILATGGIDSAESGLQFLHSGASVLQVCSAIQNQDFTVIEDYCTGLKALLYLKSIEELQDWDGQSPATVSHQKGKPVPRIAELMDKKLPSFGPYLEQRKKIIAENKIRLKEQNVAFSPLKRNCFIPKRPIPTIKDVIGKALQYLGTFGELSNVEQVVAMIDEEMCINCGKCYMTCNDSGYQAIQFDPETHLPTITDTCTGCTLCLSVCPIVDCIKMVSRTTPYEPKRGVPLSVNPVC
Procedure: (§1) In the following illustrative examples, 5-FU was measured using an antibody-based agglutination assay on the Olympus AU680 Analyzer using an antibody disclosed in U.S. Pat. No. 7,205,116. Specifically, the concentration of 5-FU in a sample is determined based on the absorbance of a sample, which is determined by the amount of aggregation by the nanoparticles. The system requires two reagents, which when mixed in the absence of free 5-FU will form large aggregates of nanoparticles and scatter light to result in a higher absorption value. In the presence of free 5-FU, the agglutination reaction becomes somewhat inhibited and scattering of light is less, causing a lower absorption value. The instrument is calibrated twice monthly, and a curve is generated (Absorbance vs. 5-FU concentration). Absorbance values from individual samples are compared against this curve to determine concentration.
(§2) Generally in the agglutination assay, 95 μl of a buffer containing 5-FU-labeled amino-dextran is pipetted to a cuvette, followed by 7 μL of a filtered plasma sample. The sample and reagent are mixed and then incubated for about 3.5 minutes. 95 μl of 5-FU antibody-conjugated nanoparticles is pipetted into the cuvette and mixed. The complete reaction incubates for about 6.2 minutes. A series of 27 measurements at 600 nm are taken at regular intervals by the AU680 analyzer throughout this process, and 5-FU concentration is calculated using the measurements from two specific time points.
Four tubes of blood (spray-on K2EDTA tubes, 10 mL) was drawn from each of five donors, and gently inverted several times to mix anti-coagulant. Blood was pooled by donor into conical tubes. An aliquot of each donor's blood was transferred to a clean tube. A calculated volume of 5-FU stock (at 200 ng/μL) was added to each blood sample to achieve a final concentration of 500 ng/mL 5-FU, and tubes were inverted to mix. Spiked blood was aliquotted into clean tubes, nine tubes per donor and 3.5 mL of blood per tube. Gimeracil was added to the tubes at a final concentration of 200, 400, or 600 ng/mL for each tube. In addition, in control samples, methanol was added to the blood instead of gimeracil, in order to serve as a negative control. The blood tubes sat at room temperature for 45 minutes after the addition of the gimeracil or methanol. At the appropriate times, the blood tubes were centrifuged at 2000×g for 10 minutes at room temperature to separate plasma. Plasma was aspirated immediately after centrifugation, and the plasma was dispensed into clean tubes. Plasma samples were run using standard conditions for Olympus AU680 analyzer (200 μL, spin for 15 minutes at 12,500 rpm). Measurements of 5-FU concentration were taken after plasma collection (“initial”) and 24 hours (“24 hr”) thereafter. For the 24 hr measurement, plasma was stored at room temperature during the 24 hours. As shown in Table 2 and FIG. 4, low concentrations of gimeracil in blood is also effective at inhibiting DPD-mediated degradation of 5-FU. The overall percent difference in 5-FU concentration between the samples containing 200 ng/mL and 600 ng/mL gimeracil is less than 1%.

[2] = biological target: T1, dihydropyrimidine dehydrogenase (DPD); test: Extended incubation of gimeracil in blood before plasma separation; type: biochemical; settings: gimeracil 1200 ng/mL; for 5-FU Concentration 24 hrs after plasma separation / 5-FU Concentration Upon plasma separation: 500 ng/mL 5-FU
Procedure: as §1, §2
Six tubes of blood (spray-on K2EDTA tubes, 6 mL) was drawn from each of six donors, and the blood tubes were inverted several times to mix the anti-coagulant into the blood. Blood tubes were pooled and kept separate by donor. An aliquot of each donor's blood was transferred to a new tube, and a calculated volume of 5-FU stock (at 200 ng/μL) was added to each blood sample to achieve a final concentration of 500 ng/mL 5-FU. Spiked blood samples were aliquotted to clean tubes, 4 mL of blood to each of 8 tubes per donor. Gimeracil in methanol solvent was added to the blood tubes to reach a final concentration of 1200 ng/mL. For negative control, methanol only is added to the control blood tube. Blood tubes sat at room temperature for 45 minutes, 24 hours, or 48 hours before plasma separation. At the appropriate times, the blood tubes were centrifuged at 2000×g for 10 minutes at room temperature for plasma separation. The plasma was aspirated immediately after centrifugation and dispensed into clean cryovials. For 5-FU assays, the plasma samples were run under standard conditions for the Olympus AU680 analyzer, as described above (200 μL, spin for 15 minutes at 12,500 rpm). Measurements of 5-FU concentration were taken after plasma collection and for 2 days following the initial reading. Plasma was stored at room temperature during the interval.

- overall percent difference in 5-FU concentration between samples containing 200 ng/mL and 600 ng/mL gimeracil ([1]; 500 ng/mL 5-FU spiked blood): less than 1%
- 5-FU concentration, Initial ([1]; gimeracil 200 ng/mL): 518.7
- 5-FU concentration, 24 hr ([1]; gimeracil 200 ng/mL): 523.4
- 5-FU concentration, Initial ([1]; gimeracil 400 ng/mL): 523.0
- 5-FU concentration, 24 hr ([1]; gimeracil 400 ng/mL): 521.6
- 5-FU concentration, Initial ([1]; gimeracil 600 ng/mL): 519.5
- 5-FU concentration, 24 hr ([1]; gimeracil 600 ng/mL): 523.3
- inhibiting DPD-mediated degradation of 5-FU ([1]; low concentrations of gimeracil in blood (200, 400, 600 ng/mL), Table 2 and FIG. 4): effective
- 5-FU Concentration 24 hrs after plasma separation ([2]; 45 minute incubation in blood): 538.1 ng/mL
- 5-FU Concentration Upon plasma separation ([2]; 45 minute incubation in blood): 533.3 ng/mL
- 5-FU Concentration 24 hrs after plasma separation ([2]; 24 hours incubation in blood): 551.9 ng/mL
- 5-FU Concentration Upon plasma separation ([2]; 24 hours incubation in blood): 551.8 ng/mL
- 5-FU Concentration 24 hrs after plasma separation ([2]; 48 hours incubation in blood): 578.4 ng/mL
- 5-FU Concentration Upon plasma separation ([2]; 48 hours incubation in blood): 581.3 ng/mL
SMILES: Oc1cc(O)c(Cl)cn1 [Gimeracil, 5-chloro-2,4-dihydroxypyridine]
- effect of keeping gimeracil in blood without plasma separation for a longer time ([2]; 24 or 48 hours in blood (FIG. 5)): may cause 5-FU concentration to artificially increase
